Test results as given in ChEMBL document CHEMBL3885861, “Open TG-GATES”.

Species: Rattus norvegicus
Test: Open TG-GATES - Regimen: Single
Format: toxicity, organism-based, Sprague-Dawley
Design: regimen Single, gender Male, age 6 weeks
Settings: in vivo, iv, 0 mg/kg, route intravenous injection, dose level Control; for APTT / Bas / Eos / Fbg / Hb / Ht / Lym / MCH / MCHC / MCV / Mono / PT / Plat / RBC / Ret / WBC: tissue Blood; for KIDNEY_L / KIDNEY_R / KIDNEY_TOTAL: tissue Kidney; for LIVER: tissue Liver; for ALP / ALT / AST / BUN / CRE / Ca / Cl / DBIL / GLC / IP / K / LDH / Na / PL / RALB / TBIL / TC / TG / TP / gamma-GTP: tissue Plasma

Structure (SMILES): CC(=O)OCC1=C(C(=O)O)N2C(=O)[C@@H](NC(=O)Cc3cccs3)[C@H]2SC1 [CEPHALOTHIN]
- TERMINAL_BW (3 h): 214.5 g
- APTT (3 h): 22.3 s
- Bas (3 h): 0%
- Eos (3 h): 0.8%
- Fbg (3 h): 274.6 mg/dL
- Hb (3 h): 13.2 g/dL
- Ht (3 h): 38.5%
- Lym (3 h): 80%
- MCH (3 h): 20.9 pg
- MCHC (3 h): 34.2%
- MCV (3 h): 61.2 fL
- Mono (3 h): 2.8%
- PT (3 h): 16.5 s
- Plat (3 h): 124.3 x10_4/uL
- RBC (3 h): 629.6 x10_4/ul
- Ret (3 h): 6.1%
- WBC (3 h): 84.8 x10_2/uL
- KIDNEY_L (3 h): 1 g
- KIDNEY_R (3 h): 1 g
- KIDNEY_TOTAL (3 h): 2 g
- LIVER (3 h): 10.2 g
- ALP (3 h): 1573.2 IU/L
- ALT (3 h): 46.4 IU/L
- AST (3 h): 85.6 IU/L
- BUN (3 h): 12.4 mg/dL
- CRE (3 h): 0.2 mg/dL
- Ca (3 h): 10.5 mg/dL
- Cl (3 h): 107.4 meq/L
- DBIL (3 h): 0 mg/dL
- GLC (3 h): 176.2 mg/dL
- IP (3 h): 7.6 mg/dL
- K (3 h): 4.3 meq/L
- LDH (3 h): 171.6 IU/L
- Na (3 h): 142 meq/L
- PL (3 h): 117.2 mg/dL
- RALB (3 h): 2.8 g/dL
- TBIL (3 h): 0.016 mg/dL
- TC (3 h): 60.8 mg/dL
- TG (3 h): 69.2 mg/dL
- TP (3 h): 5.1 g/dL
- gamma-GTP (3 h): 1 IU/L
- TERMINAL_BW (6 h): 214.9 g
- APTT (6 h): 22.2 s
- Bas (6 h): 0%
- Eos (6 h): 0.8%
- Fbg (6 h): 279.4 mg/dL
- Hb (6 h): 13.1 g/dL
- Ht (6 h): 38.1%
- Lym (6 h): 74.2%
- MCH (6 h): 21.1 pg
- MCHC (6 h): 34.3%
- MCV (6 h): 61.7 fL
- Mono (6 h): 2.4%
- PT (6 h): 16.2 s
- Plat (6 h): 129.1 x10_4/uL
- RBC (6 h): 618.8 x10_4/ul
- Ret (6 h): 6.4%
- WBC (6 h): 81.7 x10_2/uL
- KIDNEY_L (6 h): 1 g
- KIDNEY_R (6 h): 1 g
- KIDNEY_TOTAL (6 h): 2 g
- LIVER (6 h): 9.1 g
- ALP (6 h): 1313 IU/L
- ALT (6 h): 41.6 IU/L
- AST (6 h): 80 IU/L
- BUN (6 h): 9.2 mg/dL
- CRE (6 h): 0.2 mg/dL
- Ca (6 h): 10.2 mg/dL
- Cl (6 h): 105.4 meq/L
- DBIL (6 h): 0.002 mg/dL
- GLC (6 h): 184.8 mg/dL
- IP (6 h): 9.3 mg/dL
- K (6 h): 4.3 meq/L
- LDH (6 h): 176.2 IU/L
- Na (6 h): 141.4 meq/L
- PL (6 h): 122 mg/dL
- RALB (6 h): 2.8 g/dL
- TBIL (6 h): 0.02 mg/dL
- TC (6 h): 67.8 mg/dL
- TG (6 h): 41 mg/dL
- TP (6 h): 5.1 g/dL
- gamma-GTP (6 h): 1.4 IU/L
- TERMINAL_BW (9 h): 217.3 g
- APTT (9 h): 23.9 s
- Bas (9 h): 0%
- Eos (9 h): 1%
- Fbg (9 h): 305.4 mg/dL
- Hb (9 h): 13.5 g/dL
- Ht (9 h): 39.5%
- Lym (9 h): 81.4%
- MCH (9 h): 21 pg
- MCHC (9 h): 34%
- MCV (9 h): 61.6 fL
- Mono (9 h): 2%
- PT (9 h): 15.7 s
- Plat (9 h): 132.6 x10_4/uL
- RBC (9 h): 641.6 x10_4/ul
- Ret (9 h): 6.4%
- WBC (9 h): 93.1 x10_2/uL
- KIDNEY_L (9 h): 0.9 g
- KIDNEY_R (9 h): 1 g
- KIDNEY_TOTAL (9 h): 1.9 g
- LIVER (9 h): 9 g
- ALP (9 h): 1321.4 IU/L
- ALT (9 h): 37.2 IU/L
- AST (9 h): 81.2 IU/L
- BUN (9 h): 9.2 mg/dL
- CRE (9 h): 0.2 mg/dL
- Ca (9 h): 10.4 mg/dL
- Cl (9 h): 106.2 meq/L
- DBIL (9 h): 0 mg/dL
- GLC (9 h): 186.6 mg/dL
- IP (9 h): 9.6 mg/dL
- K (9 h): 4.3 meq/L
- LDH (9 h): 157.4 IU/L
- Na (9 h): 141.6 meq/L
- PL (9 h): 121.8 mg/dL
- RALB (9 h): 2.9 g/dL
- TBIL (9 h): 0.022 mg/dL
- TC (9 h): 67.4 mg/dL
- TG (9 h): 60 mg/dL
- TP (9 h): 5.3 g/dL
- gamma-GTP (9 h): 1.2 IU/L
- TERMINAL_BW (24 h): 225.8 g
- APTT (24 h): 21 s
- Bas (24 h): 0%
- Eos (24 h): 0.8%
- Fbg (24 h): 302.4 mg/dL
- Hb (24 h): 12.9 g/dL
- Ht (24 h): 37.9%
- Lym (24 h): 79.2%
- MCH (24 h): 21.2 pg
- MCHC (24 h): 33.9%
- MCV (24 h): 62.3 fL
- Mono (24 h): 2.4%
- PT (24 h): 16.5 s
- Plat (24 h): 128.1 x10_4/uL
- RBC (24 h): 607.2 x10_4/ul
- Ret (24 h): 6.3%
- WBC (24 h): 89.6 x10_2/uL
- KIDNEY_L (24 h): 1 g
- KIDNEY_R (24 h): 1 g
- KIDNEY_TOTAL (24 h): 1.9 g
- LIVER (24 h): 10.8 g
- ALP (24 h): 1398.6 IU/L
- ALT (24 h): 44.4 IU/L
- AST (24 h): 76.2 IU/L
- BUN (24 h): 17.2 mg/dL
- CRE (24 h): 0.2 mg/dL
- Ca (24 h): 10.9 mg/dL
- Cl (24 h): 105.8 meq/L
- DBIL (24 h): 0 mg/dL
- GLC (24 h): 189.4 mg/dL
- IP (24 h): 7.3 mg/dL
- K (24 h): 4.5 meq/L
- LDH (24 h): 221 IU/L
- Na (24 h): 142.4 meq/L
- PL (24 h): 145.8 mg/dL
- RALB (24 h): 3 g/dL
- TBIL (24 h): 0.012 mg/dL
- TC (24 h): 74.4 mg/dL
- TG (24 h): 74.6 mg/dL
- TP (24 h): 5.5 g/dL
- gamma-GTP (24 h): 1.4 IU/L
